Results published in publication PMC7586963, “Coumarin‐Tagged Dinuclear Trithiolato‐Bridged Ruthenium(II)⋅Arene Complexes: Photophysical Properties and Antiparasitic Activity” (Chembiochem, 2020).
Read-outs that look alike come from different tables or passages of the source.

Key:
[1] = in vitro; conditions: human
Protocol: (§1) In addition, the effects on uninfected HFF host cells were assessed. […] The viability of HFF cultures following drug treatments was measured by alamarBlue assay, and the proliferation of T. gondii was quantified by measuring β‐galactosidase activity.

[2] = test system: T. gondii β-gal tachyzoites; experiment: T. gondii β-gal tachyzoite proliferation in HFF (β-galactosidase/CPRG assay); conditions: for activity at 0.1 µM / activity at 1 µM: read-out: T. gondii β-gal proliferation (%); for T. gondii β-gal proliferation (%): 3 days, relative to 0.1 % DMSO control; for IC50: read-out: IC50 against T. gondii β-gal tachyzoite proliferation
Protocol: The compounds presented in this study were screened for biological activity in vitro against T. gondii β‐gal, a transgenic strain that constitutively expresses β‐galactosidase, which is grown in HFF monolayers. In addition, the effects on uninfected HFF host cells were assessed. […] The viability of HFF cultures following drug treatments was measured by alamarBlue assay, and the proliferation of T. gondii was quantified by measuring β‐galactosidase activity.
In vitro culture of parasites and host cells: If not stated otherwise, all tissue culture media were purchased from Gibco‐BRL, and biochemical reagents were from Sigma‐Aldrich). Human foreskin fibroblasts (HFF) were maintained in DMEM containing 10 % fetal calf serum (FCS; Gibco‐BRL) and antibiotics as described earlier.10 T. gondii β‐gal (transgenic T. gondii RH expressing the β‐galactosidase gene from E. coli 69 were maintained in HFF cells, and were isolated and separated from their host cells as described.10
In vitro assessment of drug efficacy: To study the effects of compounds against T. gondii tachyzoites in vitro, 1 mM stock solutions of complexes were prepared in DMSO, and stored at −20 °C. For assessment of drug efficacy against T. gondii tachyzoites, parasites were isolated and assays were performed using HFF as host cells as previously described.10 In short, 5×10^3 HFF cells per well were grown to confluence in a 96‐well plate in phenol‐red free culture medium at 37 °C with 5 % CO2. […] Initial assessments of drug efficacy were done by exposing parasite cultures to 0.1 and 1 μM of each compound for a period of three days, or 0.1 % DMSO was added as a control. […] After three days of incubation at 37 °C, 5 % CO2, medium was removed, and cell cultures were permeabilized by using 90 μL PBS containing 0.05 % Triton‐X‐100. After addition of 10 μL of 5 mM chlorophenol red‐β‐D‐galactopyranoside (CPRG; Roche Diagnostics) dissolved in PBS, the absorption shift was measured at 570 nm wavelength at various time points on a VersaMax multiplate reader (Bucher Biotec, Basel, Switzerland). For the initial screening at 0.1 and 1 μM, the activity, measured as the release of chlorophenol red over time, was calculated as percentage from DMSO control, which represented 100 % of T. gondii β‐gal growth. […] IC50 values were calculated after the logit‐log‐transformation of relative growth and subsequent regression analysis. All calculations were performed using the corresponding software tool contained in the Excel software package (Microsoft).

[3] = test system: human foreskin fibroblasts (HFF)
Protocol: as §1

[4] = test system: human foreskin fibroblasts (HFF); experiment: Cytotoxicity on uninfected confluent HFF (alamarBlue assay); conditions: 2.5 μM
Protocol: as §1

For `CCN(CC)c1ccc2cc(C(=O)NCCCNC(=O)OC(C)(C)C)c(=O)oc2c1` [Compound 5], the viability at 3 days, 0.1 µM [1] was 118 ± 10%, the viability at 3 days, 1 µM [1] was 88 ± 10% and the activity at 0.1 µM ([2]; Toxoplasma gondii, 72 h) was 131 ± 3%. It also gave an activity at 1 µM ([2]; Toxoplasma gondii, 72 h) of 118 ± 22%.

Work on `CCN(CC)c1ccc2cc(C(=O)NCCCCNC(=O)OC(C)(C)C)c(=O)oc2c1` [Compound 6] yielded a viability at 3 days, 0.1 µM [1] of 98 ± 8%, a viability at 3 days, 1 µM [1] of 82 ± 4% and an activity at 0.1 µM ([2]; Toxoplasma gondii, 72 h) of 137 ± 9%. The activity at 1 µM ([2]; Toxoplasma gondii, 72 h) was 125 ± 16%.

In the case of `CC(C)(C)OC(=O)NCCCCNC(=O)c1cc2cc3c4c(c2oc1=O)CCCN4CCC3` [Compound 7], the viability at 3 days, 0.1 µM [1] is reported as 95 ± 9%, the viability at 3 days, 1 µM [1] is reported as 96 ± 6% and the activity at 0.1 µM ([2]; Toxoplasma gondii, 72 h) is reported as 132 ± 6%. For the same compound, the activity at 1 µM ([2]; Toxoplasma gondii, 72 h) was 148 ± 5%.

With `CCN(CC)c1ccc2cc(C(=O)NCCCN)c(=O)oc2c1` [Compound 8] the viability at 3 days, 0.1 µM [1] was 96 ± 9%, the viability at 3 days, 1 µM [1] was 85 ± 6% and the activity at 0.1 µM ([2]; Toxoplasma gondii, 72 h) was 117 ± 10%. It also gave an activity at 1 µM ([2]; Toxoplasma gondii, 72 h) of 114 ± 13%.

For `CCN(CC)c1ccc2cc(C(=O)NCCCCN)c(=O)oc2c1` [Compound 9], the viability at 3 days, 0.1 µM [1] was 125 ± 20%, the viability at 3 days, 1 µM [1] was 111 ± 4% and the activity at 0.1 µM ([2]; Toxoplasma gondii, 72 h) was 114 ± 4%. For the same compound, the activity at 1 µM ([2]; Toxoplasma gondii, 72 h) was 127 ± 4%.

Work on `NCCCCNC(=O)c1cc2cc3c4c(c2oc1=O)CCCN4CCC3` [Compound 10] yielded a viability at 3 days, 0.1 µM [1] of 124 ± 5%, a viability at 3 days, 1 µM [1] of 69 ± 9% and an activity at 0.1 µM ([2]; Toxoplasma gondii, 72 h) of 101 ± 8%. The activity at 1 µM ([2]; Toxoplasma gondii, 72 h) was 113 ± 7%.

For `O=C(O)c1cc2cc3c4c(c2oc1=O)CCCN4CCC3` [Dye2‐CO2H, 11‐oxo‐2,3,6,7‐tetrahydro‐1H,5H,11H‐pyrano[2,3‐f]pyrido[3,2,1‐ij]quinoline‐10‐carboxylic acid, reference compound], the viability at 3 days, 0.1 µM [1] was 106 ± 1%, the viability at 3 days, 1 µM [1] was 105% and the “HFF viability (%)” value ([3]; 0.1 µM) was “did not affect viability of HFF”. For the same compound, the “HFF viability (%)” value ([3]; 1 µM) was “did not affect viability of HFF”, the “T. gondii β-gal proliferation (%)” value ([2]; 0.1 µM) was 69% and the activity at 0.1 µM ([2]; Toxoplasma gondii, 72 h) was 69 ± 11%. The activity at 1 µM ([2]; Toxoplasma gondii, 72 h) was 92 ± 6%.

Work on `CCc1nc(N)nc(N)c1-c1ccc(Cl)cc1` [pyrimethamine, reference compound] yielded a viability at 2.5 µM [1] of 99% and an IC50 ([2]; Toxoplasma gondii, 72 h) of 326 nM.

With “[(η6-p-MeC6H4Pri)2Ru2(µ2-SCH2C6H4-p-But)(µ2-SC6H4-p-OH)2]Cl [Compound 19]” the “HFF viability (%)” value ([3]; 0.1 µM) was 62 ± 8%, the “HFF viability (%)” value ([3]; 1 µM) was 56 ± 7% and the “HFF viability at 2.5 μM” value ([3]; 2.5 μM) was 2%. The “T. gondii β-gal proliferation (%)” value ([2]; 0.1 µM) was 3 ± 1%, the “T. gondii β-gal proliferation (%)” value ([2]; 1 µM) was 2 ± 0% and the IC50 ([2]; three days of incubation, in HFF host cells, 6 concentrations 0.03-1 μM) was 115 nM. For the same compound, the “reduction in HFF viability” value [4] was 98%.
